Earlier results, collected in patent US7964202B2, “Method for treatment of common acne” (Galderma Research & Development, S.N.C., priority 2001, dated 2011).
Read-outs that look alike come from different tables or passages of the source.

Columns and labels:
[1] = in presence of benzoyl peroxide formulation
[2] = for degradation time: 40° C.

Row | retinoid degraded ([1]; 24 hours) | retinoid degraded ([1]; 2 hours) | Compound | degradation time ([2]; in solution in PEG 400 (0.5 mg/g)) | degradation time ([2]; in solution in ethanol) | degradation time ([2]; in solution in propylene glycol) | degradation in suspension (dispersed form) ([2]; in water and propylene glycol, storage for 90 days) | Benzoyl peroxide solubility (solvent PEG 400) | Benzoyl peroxide solubility (solvent ethanol) | Benzoyl peroxide solubility (solvent glycerol) | Benzoyl peroxide solubility (solvent propylene glycol) | Benzoyl peroxide solubility (solvent propylene glycol/water (75:25)) | Benzoyl peroxide solubility (solvent water)
1 | no degradation | – | COc1ccc(-c2ccc3cc(C(=O)O)ccc3c2)cc1C12CC3CC(CC(C3)C1)C2 [adapalene] | – | – | – | – | – | – | – | – | – | –
2 | – | – | O=C(OOC(=O)c1ccccc1)c1ccccc1 [Benzoyl peroxide] | 1.4 days | 29 days | 53 days | not degraded | 39.6 mg/g | 17.9 mg/g | 0.15 mg/g | 2.95 mg/g | 0.36 mg/g | 0.000155 mg/g
3 | 95% | 50% | CC1=C(/C=C/C(C)=C/C=C/C(C)=C/C(=O)O)C(C)(C)CCC1 [tretinoin] | – | – | – | – | – | – | – | – | – | –
